{
  "source": "patent US8703813B2",
  "about": "“Compound with spiro chiral carbon backbone, preparation method thereof, and pharmaceutical composition containing the same” (SNU R & DB Foundation, priority 2008, dated 2014)",
  "key": {"[1]": {"tested_on": "C57BL/6 mice", "test": "Fatty liver inhibitory efficacy in T0901317-induced fatty liver model", "format": "in vivo, mouse", "description": "In order to verify the fatty liver inhibitory efficacy of the compound 1 developed in the present invention, C57BL/6 mice were used in this experiment. A fatty liver model was constructed by administering T0901317, which generates fatty liver, to 10-week age C57BL/6 mice while feeding the C57BL/6 mice with general feed-additive. The fatty liver inhibitory efficacy of the compound 1 was observed by orally administering this compound. A mouse fed with 0.75% of only carboxymethylcellulose, as a medication deliver, was used for a negative control group, and a mouse fed with only TO901317 was used for a positive control group. In addition, in order to analyze gene expression of C57BL/6 mouse liver, the mouse livers of the negative control group, the positive control group, and the treatment group were extracted and treated with Trizol, to obtain RNAs. The obtained RNAs were quantified using an absorption spectrometer (Nanodrop), and cDNAs were obtained from RNAs having the same amount among respective groups through an RT-PCR method using oligo dT and reverse transcriptase. The real-time polymerase chain reaction was performed using cDNAs, which were obtained for analysis of mRNA change among groups, as templates, and using primers of transporter genes related to fat synthesis and inflow of fat to the liver. […] Accordingly, the compounds of the present invention and derivatives thereof are expected to play a very innovative role in treatment of alcoholic fatty liver, non-alcoholic fatty liver, and fatty liver due to viral infection."}, "[2]": {"tested_on": "Runx2 and TAZ", "test": "Western blot of osteoblast differentiation mark factors", "format": "cell-based, mouse", "settings": "C3H/10T1/2 treated for 6 days", "experimental": "An aliquot 116V and an aliquot 116VI extracted and partitioned from sponges are dissolved in a DMSO solvent, and used to treat the C3H/10T1/2 cell line, mesenchymal progenitor cells, at concentrations of 1, 2.5, 5, 10, and 20 ug/ml. […] Since then, the same experiment was performed on the compound (1163), the compound 2 (1162), the compound 3 (1161), and the compound 4 (1164), which were purely separated from the aliquots 116V and 116VI, and as a result, it could be confirmed that the osteoblast differentiation ability was increased in the compounds 1, 3, and 4. […] To study a mechanism with respect to osteoblast differentiation ability, the C3H/10T1/2 cell lines were treated with the compound 1 and the compound 4 for 6 days, respectively. […] Also, the C3H/10T1/2 cell lines were treated with the compound 1 and the compound 4 for 6 days, respectively. […] Furthermore, it could be ascertained that combining of Runx2 and TAZ proteins was increased by treatment of the compounds and thus the activity of Runx2-meditated transcription was increased. The compound 5, which is an ester derivative of the compound 1 (1163), was synthesized in order to prepare a material having more excellent bioactivity, and the structure of the compound 5 obtained thus was determined. […]"}, "[3]": {"tested_on": "other nuclear receptors", "test": "Selectivity for various nuclear receptors, transfection assay", "format": "cell-based", "settings": "same method as LXR assay", "experimental": "Animal cell line CV-1 was used in transfection search. Cells were cultured in DMEM medium within a cell culture device containing 5% carbon dioxide at 37° C. The medium contained 10% FBS (fetal bovine serum), 100 U/ml penicillin, and 100 μg/ml streptomycin. On day 1 of the experiment, CV 1 cells were seeded in 96 well plates at 5,000 cells/well. On day 2, the seeded cells were transfected with plasmid expressing GAL-hLXR, plasmid expressing Luciferase gene, and plasmid expressing β-galactocidase by using a transfection reagent, Superfect (QIAGEN). After 16 hours, the transfected cells were treated with the compound 1 dissolved in dimethylsulfoxide (DMSO) by the concentrations, together with the agonist, TO901317 (2.5 μM). Cells treated with dimethylsulfoxide having the final concentration of 1% were used as a negative control group, and cells treated with T0901317 having the final concentration of 500 nM were used as a positive control group. The cells were cultured for 24 hours, and lysed by using a lysis buffer. […] The β-galactosidase activity, after adding of an ONPG reagent, was measured using an ELISA reader. The measured Luciferase value was corrected by activity value of β-galactosidase. […] In addition, the activities on various nuclear receptors were measured by using the same method, in order to measure selectivity for various nuclear receptors."}, "[4]": {"tested_on": "HepG2 cells", "test": "Gene expression regulation in liver cells (real-time PCR)", "format": "cell-based", "settings": "HepG2 human liver cells", "experimental": "(§1) In order to verify efficacy of the developed liver-X-receptor antagonist, the function of regulating gene expression was identified in mouse liver cells and human liver cells. In the present experiment, mouse liver cells, AML 12 cells and human liver cells, and HepG2 cells were used. AML12 cells were cultured in DMEM medium within a cell incubator with 5% carbon dioxide at 37° C. The medium contained 10% fetal bovine serum (FBS), 100 U/ml penicillin, and 100 μg/ml streptomycin. On day 1 of the experiment, AML12 cells are seeded in 6 well plates. On day 2, when the cells were grown to 80% confluency, the medium was replaced by the DMEM medium not containing serum, and then three wells per treatment group were treated with TO901317 and the developed liver-X-receptor antagonist. […] The extracted RNAs were quantified, and 1 μg of the extracted RNAs per each sample were used in cDNA synthesis. […] The cDNAs synthesized for the real-time polymerase chain reaction were mixed with primer selective for ACC1 or Actine gene and QuantiTech Master Mix (QIAGEN). […] The Ct values per each treatment group were compared with the Ct values of the negative control group, and the differences in expression amount of genes were calculated. […]"}, "[5]": {"tested_on": "AML12 cells", "test": "Gene expression regulation in liver cells (real-time PCR)", "format": "cell-based", "settings": "AML12 mouse liver cells, 1 μM alone or with 500 nM T0901317, 18 hours", "experimental": "as §1"}, "[6]": {"tested_on": "LXR protein", "test": "Biacore direct binding experiment"}},
  "data": [
    {"smiles": "CC(C)=CCC/C(C)=C/[C@H]1CC(C)=C[C@@]2(C=C(CO)[C@@H]3CC(=O)C(C)=C[C@@H]3O2)O1", "note": "[Compound 1]", "values": [
      {"measurement": "liver expression of fatty acid synthetic genes and transporter genes of transporting fats to the liver", "setting": "[1]; mouse liver, real-time PCR", "result": "inhibits the expression"},
      {"measurement": "fatty liver inhibitory efficacy", "setting": "[1]; oral administration, T0901317-induced fatty liver, C57BL/6 mice", "result": "very superior fatty liver inhibitory efficacy"},
      {"measurement": "body weight among the treatment group and the control groups", "setting": "[1]; oral administration, fatty liver-induced C57BL/6 mice", "result": "no difference in body weight"},
      {"measurement": "protein expression of Runx2 and TAZ", "setting": "[2]", "result": "increased"},
      {"measurement": "activity on the other nuclear receptors", "setting": "[3]", "result": "never showed the activity"},
      {"measurement": "expression of fatty acid biosynthesis genes SREBP1c, ACC, and FAS", "setting": "[4]", "result": "inhibited the expression"},
      {"measurement": "expression of fatty acid biosynthesis genes SREBP1c, ACC, and FAS", "setting": "[5]", "result": "inhibited the expression"},
      {"measurement": "direct binding with the LXR protein", "setting": "[6]", "result": "directly bound"}
    ]}
  ]
}
